In patent publication US9464064B2, “HCV helicase inhibitors and methods of use thereof” (University of Kansas, priority 2011, dated 2016):
Non-standard residues stand in square brackets, D forms with d. Residues, ends and D or L forms follow the SMILES beside them. ξ: configuration not given here. *: point of attachment. ξNMe2Val = CC(C)C(C(=O)*)N(C)C; NMeV = CN[CH](C(=O)O)C(C)C; NHBn = c1ccc(CN*)cc1

Biological target: T1, HCV NS3 helicase NS3h_1b(con1) (Hepatitis C virus genotype 1b, UniProt Q9WMX2)
T1 construct: truncated C-terminally His-tagged NS3 proteins lacking the N-terminal protease, called NS3h; His-tag (C); made in house
Assay: MBHA screen of NCI mechanistic set library at 20 μM (percent inhibition, compound interference)
Assay type: biochemical
Conditions: compounds at 20 μM; for Inh. (%) (Inhibition): calculated from Equation 1
Procedure: All molecular beacon-based helicase assays (MBHAs) were performed according to known methods (Belon & Frick (2008) supra; Belon & Frick (2009) supra). […] In each flat, black 384-well plate, 56 compounds were tested, in triplicate, along with three negative controls (DMSO only), three positive controls (500 nM dT20), and two wells with no enzyme. Fluorescence was read before ATP (F0) addition and 30 minutes after ATP was added to 1 mM (F30) using a Tecan Infinite M200 fluorescence microplate reader with excitation and emission wavelengths set to 643 and 670 nm, respectively. Percent inhibition was calculated with equation 1, and compound interference in the MBHA was calculated with equation 2.
In Equations 1 and 2, Fc0 is the fluorescence of the reactions containing the test compound before adding ATP, Fc30 is the fluorescence of the test compound reaction 30 minutes after adding ATP. F(−)0 is the average of three DMSO-only negative control reactions before adding ATP and F(−)30 is the average of three DMSO-only reactions 30 minutes after adding ATP.
To identify HCV helicase inhibitors, the MBHA was first used to screen the National Cancer Institute Developmental Therapeutics Program's mechanistic set library. In total, 827 compounds (at 20 μM) were screened using a MBHA with a DNA substrate (Table 1). Compounds were ranked by their ability to inhibit HCV helicase-catalyzed DNA unwinding as calculated from Equation 1.
Compound interference in the MBHA was evaluated by comparing the fluorescence of reactions containing each compound to the fluorescence of DMSO-only negative controls before ATP was added.

[1] = MBHA with DNA substrate, assay interference calculated with Equation 2
[2] = assay interference calculated with Equation 2 (fluorescence vs DMSO-only controls before ATP)

T1 sequence (Q9WMX2 1192-1657): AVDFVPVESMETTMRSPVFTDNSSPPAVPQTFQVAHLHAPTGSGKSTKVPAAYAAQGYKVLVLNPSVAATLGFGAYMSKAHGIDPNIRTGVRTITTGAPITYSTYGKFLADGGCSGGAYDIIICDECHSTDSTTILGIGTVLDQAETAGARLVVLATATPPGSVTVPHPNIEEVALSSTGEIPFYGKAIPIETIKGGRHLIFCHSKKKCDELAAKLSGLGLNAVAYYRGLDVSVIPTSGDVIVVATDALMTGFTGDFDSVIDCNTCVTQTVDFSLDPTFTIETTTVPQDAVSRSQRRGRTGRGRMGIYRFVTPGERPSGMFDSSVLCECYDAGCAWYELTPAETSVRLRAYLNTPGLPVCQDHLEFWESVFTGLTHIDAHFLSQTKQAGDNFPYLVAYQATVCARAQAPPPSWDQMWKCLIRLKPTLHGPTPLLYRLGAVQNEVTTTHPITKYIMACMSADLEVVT

Compound	Int.* (Ratio) (Interference) [1]	Inh. (%) (Inhibition) (MBHA with DNA substrate)	Inh. (%) (Inhibition) (MBHA with a DNA substrate)	Int.* (Ratio) (Interference) [2]	Inh. (%) (Inhibition) (MBHA with DNA substrate, 20 µM)
CN(CCc1ccccn1)c1ccc2c(c1)C(=O)c1ccccc1-2 [Compound 24048]	1.11	−12.7	–	–	–
Oc1cccc2cccnc12 [Compound 285166]	0.95	−2.2	–	–	–
CC(=O)[O][Sn]([CH2]c1ccccc1)([CH2]c1ccccc1)[CH2]c1ccccc1 [Compound 164909]	–	–	−20.2	1.04	–
CN(C)/N=N/c1nc[nH]c1C(N)=O [Compound 45388]	0.95	17.5	–	–	–
CNC(=S)N/N=C/c1ccc([N+](=O)[O-])s1 [Compound 169543]	–	–	9.6	1.02	–
C[C@]12C=CC(=O)C=C1[C@@H](F)C[C@H]1[C@@H]3CC[C@](O)(C(=O)CO)[C@@]3(C)C[C@H](O)[C@@]12F [Compound 77021]	–	–	9.8	1.00	–
O=c1c(Br)c(-c2ccccc2)[nH]c2ccccc12 [Compound 12825]	0.95	4.4	–	–	–
O=C1OC(c2ccccc2)=N/C1=C\c1ccc(N(CCCl)CCCl)cc1 [Compound 104117]	1.06	−14.5	–	–	–
O=[N+]([O-])c1ccc(N=Nc2c(O)[nH]c3ccccc23)c([N+](=O)[O-])c1 [Compound 4810]	1.01	−15.4	–	–	–
NC(=O)OCc1c(O)c2c(c(O)c1COC(N)=O)C(=O)C=CC2=O [Compound 224124]	0.93	37.7	–	–	–
COc1cccc(/C=N\NC(=O)C(C)SC(C)C(=O)N/N=C/c2cccc(OC)c2)c1 (stereo not drawn) [Compound 56737]	1.12	−7.2	–	–	–
Cl.Nc1ccn([C@@H]2O[C@H](CO)[C@@H](O)[C@@H]2O)c(=O)n1 [Compound 63878]	–	–	8.3	0.89	–
CO[C@H](C(=O)[C@@H](O)[C@@H](C)O)[C@@H]1Cc2cc3cc(O[C@H]4C[C@@H](O[C@H]5C[C@@H](O)[C@H](O)[C@@H](C)O5)[C@H](O)[C@@H](C)O4)c(C)c(O)c3c(O)c2C(=O)[C@H]1O[C@H]1C[C@@H](O[C@H]2C[C@@H](O[C@H]3C[C@](C)(O)[C@H](O)[C@@H](C)O3)[C@@H](O)[C@@H](C)O2)[C@H](O)[C@@H](C)O1 [Compound 24559]	0.91	36.0	–	–	–
CC(C)C(NC(=O)C(C(C)C)N(C)C)C(=O)N(C)C(C(=O)N1CCCC1C(=O)N1CCCC1C(=O)NCc1ccccc1)C(C)C.Cl (stereo not drawn) [Compound 669356] (ξNMe2Val-V[NMeV]PP-NHBn; configuration not given here)	1.08	−9.2	–	–	–
Cc1cc(N(CCCl)CCCl)ccc1/C=N/NC(=O)Cc1cc(=O)oc2cc(O)ccc12 [Compound 79688]	–	–	7.5	0.97	–
CCCCCCCC/C=C\CCCCCCCC(=O)O [Compound 9856]	0.84	12.6	–	–	–
O=C1C(=O)c2ccccc2C(O)=C1CC=C(Cl)Cl [Compound 126771]	1.12	−9.7	–	–	–
COc1ccc(C2C=C(c3ccc4c(c3)OCO4)Oc3c2c(=O)oc2ccccc32)cc1OC (stereo not drawn) [Compound 211489]	–	–	−30.1	0.82	–
CNC(=O)ON(C(C)=O)C(=O)NC [Compound 253272]	0.97	5.5	–	–	–
CN(C)CCCN1c2ccccc2Sc2ccc3ccccc3c21 [Compound 18891]	–	–	−4.0	0.89	–
O=c1oc2cc(O)ccc2c2oc3cc(O)ccc3c12 [Compound 22842]	1.10	1.5	–	–	–
N[C@@H](CN(O)N=O)C(=O)O [Compound 529469]	0.89	18.9	–	–	–

Now from value to molecule:

Int.* (Ratio) (Interference) [1]	Inh. (%) (Inhibition) (MBHA with DNA substrate)	Inh. (%) (Inhibition) (MBHA with a DNA substrate)	Int.* (Ratio) (Interference) [2]	Inh. (%) (Inhibition) (MBHA with DNA substrate, 20 µM)	Compound
–	–	−21.9	0.82	–	Cc1c(C(=O)C/C(=N\O)C(=O)Nc2cc(Cl)c(Cl)cc2Cl)[n+](=O)c2ccccc2n1[O-] [Compound 635544]
0.88	3.5	–	–	–	CC(=O)OC1CC(n2cc(F)c(=O)[nH]c2=O)OC1CO (stereo not drawn) [Compound 407335]
1.01	4.2	–	–	–	COC(=O)C1=CC(=O)C(C(=O)Nc2ccc(OC)cc2)C(c2ccccc2)O1 (stereo not drawn) [Compound 634473]
0.94	−14.8	–	–	–	O=C1/C(=C/c2ccc([N+](=O)[O-])cc2)Sc2scc(-c3cccc([N+](=O)[O-])c3)[n+]21.[Cl-] [Compound 657598]
0.95	6.7	–	–	–	CC(=O)N=C1N(/C=C2\C(=O)Oc3ccccc3C2=O)C(=O)/C(=C/c2ccccc2Cl)N1C [Compound 658494]
1.10	−13.4	–	–	–	NC(=O)c1c([N+](=O)[O-])cc(C(F)(F)F)cc1[N+](=O)[O-] [Compound 622640]
1.09	−17.7	–	–	–	Cc1ccccc1NC(=O)/C=N/O [Compound 625639]
0.96	−1.6	–	–	–	CNC(=O)c1cc(NC(=O)N(CCC#N)CCN(C(=O)N[C@@H](Cc2ccccc2)C(=O)N[C@@H](CC(C)C)C(=O)NC)c2ccccc2)ccc1OC [Compound 688363]
0.94	0.4	–	–	–	C=C1CC(Cn2cc(Br)c(=O)[nH]c2=O)(c2ccc(-c3ccccc3)cc2)OC1=O (stereo not drawn) [Compound 668260]
1.01	−11.0	–	–	–	N#CCCN(c1ccc(C=O)cc1)S(=O)(=O)c1ccccc1 [Compound 637914]
0.93	45.5	–	–	–	Oc1cc2c3c(c1)c1cc4c(cc1c[n+]3CC2)OCO4.[Cl-] [Compound 338259]
–	–	−5.7	0.91	–	COc1ccc(/C=C/c2cc(OC)c(OC)c(OC)c2)cc1OP(=O)(O)O [Compound 643812]
–	–	−21.0	1.04	–	N#C/C(=C\c1ccc2ccccc2c1)C(=O)c1ccccc1 [Compound 643186]
0.96	6.7	–	–	–	CCN(CC)CCOC(=O)Cc1cccc2c(=O)cc(-c3ccccc3)oc12 [Compound 293015]
0.50	38.3	–	–	–	COc1ccc2cc1Oc1ccc(cc1)CC1c3c(cc(OC)c4c3Oc3cc5c(cc3O4)CCNC5C2)CCN1C (stereo not drawn) [Compound 181486]
–	–	−3.0	0.86	–	S=C(Nc1ccccc1)N(/N=C/C=C/c1ccccc1)c1nnc(-c2ccccc2)c(-c2ccccc2)n1 [Compound 640637]
–	–	−35.3	1.04	–	O=C1Cc2c(-c3ccccc3)cc(-c3cccc(Cl)c3)nc2-c2ccccc2N1 [Compound 684480]
1.03	−18.7	–	–	–	O=C1C(Br)=C(Br)C(=O)c2ccccc21 [Compound 618332]
0.97	−10.5	–	–	–	Cc1ccc(C)c(NC(=O)C(=O)C(C(=O)c2ccc3ccccc3c2)C2OC(=O)c3ccccc32)c1 (stereo not drawn) [Compound 640985]
1.11	–	–	–	54.2	[Mo] [Compound 622124]
0.93	−14.9	–	–	–	COc1ccc(-n2/c(=N/C(=S)N(C)C)ss/c2=N\C(=S)N(C)C)cc1 [Compound 622586]
–	–	−28.9	1.06	–	O=C1c2ccccc2C(=O)c2sc(Nc3ccc(Cl)cc3)nc21 [Compound 631529]
0.95	−0.4	–	–	–	Cc1ccc(NC(=S)C#N)c(C)c1 [Compound 369318]
–	–	−35.7	0.99	–	Cl.NC1(CCNC(=O)c2ccccc2)CCN(C(=O)c2ccccc2)CC1 [Compound 680509]
0.91	−12.7	–	–	–	Cc1c(C(=O)C/C(=N/NC(=O)CC#N)C(N)=O)[n+](=O)c2ccccc2n1[O-] [Compound 635542]
0.98	−2.2	–	–	–	O=Cc1cc([N+](=O)[O-])no1 [Compound 626433]
